# Measurements as given in patent US20070129383A1, “Substituted 2-amino-[1,2,4]triazolo[1,5-a]pyrimidine derivative and use thereof” (priority 2003, published 2007).
# Tested on: MHC class I expression of T1 cell (human lymphoma line 174×CEM.)
# Test: Effect on MHC class I expression of T1 cell (flow cytometry, MFI)
# Format: cell-based
# Conditions: 72 h, concentration inhibiting MHC class I molecule expression level by 20%, T1 cells, three days incubation, read-out: EC20
# Experimental: T1 cells (5.7×10^3 cells/200 μL/well) were incubated using a 96-well flat bottom microplate in RPMI1640 culture medium (Iwaki Glass Corporation) containing 10% bovine serum (hereinafter referred to as FBS; Iruvine Scientific) in the presence of a test compound of each concentration diluted from 400 μM by a common ratio of root 10 at 37° C. in an incubator containing 5% carbon dioxide concentration for three days. After incubation, cells were stained with fluoroisothiocyanate labeled mouse antihuman MHC class I monoclonal antibody (antibody produced by cell strain W6/32 (ATCC No, CRL1991). Mean fluorescence intensity (hereinafter referred to as MFI) of stained cells was measured with flow cytometry FACScan (BD), and this was assumed as MHC class I molecule expression level. Concentrations of the test compounds which inhibited the expression level of MHC class I molecule by 20% (EC20 value) were calculated from the following Expression (1), which are shown in Table 1. [formula]
row,Structure (SMILES),IC20
1,"CNc1nc2nccc(-c3cccs3)n2n1 [Example 001, N-methyl-7-thiophene-[1,2,4]triazolo[1,5-a]pyrimidin-2-ylamine]",6 µM
2,CC(C)(C)OC(=O)Nc1nc2nccc(-c3ccccc3)n2n1 [Example 007],6.25 µM
3,COc1cccc(-c2ccnc3nc(NC(=O)OC(C)(C)C)nn23)c1 [Example 008],7.5 µM
4,CC(C)(C)OC(=O)Nc1nc2nccc(-c3ccc([N+](=O)[O-])cc3)n2n1 [Example 009],7.2 µM
5,CC(=O)C1CC(CC(=O)Nc2nc3nccc(-c4cccs4)n3n2)C1(C)C (stereo not drawn) [Example 013],8.2 µM
6,CC(C)=CC(=O)Nc1nc2nccc(-c3cccs3)n2n1 [Example 015],9.2 µM
7,O=C(CC1CCCC1)Nc1nc2nccc(-c3cccs3)n2n1 [Example 016],9.7 µM
8,O=C(/C=C\Sc1ccccc1)Nc1nc2nccc(-c3cccs3)n2n1 [Example 020],5.3 µM
9,"O=C(CCS(=O)(=O)c1ccccc1)Nc1nc2nccc(-c3cccs3)n2n1 [Example 022, 3-benzenesulfonyl-N-(7-thiophene[1,2,4]triazolo[1,5-a]pyrimidin-2-yl)propionamide]",8.2 µM
10,O=C(Nc1nc2nccc(-c3cccs3)n2n1)C1C2CC3C(C2=O)C31 (stereo not drawn) [Example 026],8.8 µM
11,"CC1(C)CC(=O)C=C(C(=O)Nc2nc3nccc(-c4cccs4)n3n2)O1 [Example 028, 6,6-dimethyl-4-oxo-5,6-dihydro-4H-pyran-2-carboxylic acid N-(7-thiophen-2-yl-[1,2,4]triazolo[1,5-a]pyrimidin-2-yl)amide]",7.7 µM
12,CC(C)(C)OC(=O)NC(CSCc1ccccc1)C(=O)Nc1nc2nccc(-c3cccs3)n2n1 (stereo not drawn) [Example 036],7.1 µM
13,CC(C)[C@H](N)C(=O)Nc1nc2nccc(-c3cccs3)n2n1 [Example 040],8.4 µM
14,"CCC(NC(=O)OC(C)(C)C)C(=O)Nc1nc2nccc(-c3cccs3)n2n1 [Example 047, (S)-(1-(7-thiophen-2-yl-triazolo[1,5-a]-pyrimidin-2-ylcarbamoyl)propyl)carbamic acid tert-butyl ester]",7.3 µM
15,COc1ccc(-c2ccnc3nc(NC(C)=O)nn23)cc1 [Example 052],6.8 µM
16,"COc1cccc(-c2ccnc3nc(NC(=O)CCS(=O)(=O)c4ccccc4)nn23)c1 [Example 054, 3-benzenesulfonyl-N-(7-(3-methoxyphenyl)-[1,2,4]triazolo[1,5-a]pyrimidin-2-yl)propionamide]",4 µM
17,O=C(CCS(=O)(=O)c1ccccc1)Nc1nc2nccc(-c3ccccc3)n2n1 [Example 055],1.6 µM
18,"COc1ccc(-c2ccnc3nc(NC(=O)CCS(=O)(=O)c4ccccc4)nn23)cc1 [Example 056, 3-benzenesulfonyl-N-(7-(4-methoxyphenyl)-[1,2,4]triazolo[1,5-a]pyrimidin-2-yl)propionamide]",0.74 µM
